Test results as given in patent US6040341A, “Compounds and their compositions having anti-inflammatory and anti-thrombotic activities” (Nicox S.A., priority 1995, dated 2000).
Read-outs that look alike come from different tables or passages of the source.

What was measured:
[1] = test system: human piastrines stimulated by trombin; assay: Anti-aggregating piastrinic activity, aggregation induced by trombin; format: cell-based; conditions: for activity at 1000 µM / activity at 100 µM / activity at 10 µM: read-out: Piastrinic aggregation (%) induced by trombin
Method: (§1) For the in vitro tests (piastrinic tests) the nitroderivatives, 1 mmol, were dissolved in dimethylsulfoxide and then diluted according to the concentrations listed in the Table.
(§2) Aspirin ASA 30 mmols was dissolved in a mixture of etanol:H2 O in the range 1:10 by volume and then diluted according to the concentrations listed in the Table.

[2] = test system: human piastrines stimulated by arachidonic acid; assay: Anti-aggregating piastrinic activity, aggregation induced by arachidonic acid; format: cell-based; conditions: Platelet; for activity at 100 µM / activity at 10 µM: read-out: Piastrinic aggregation (%) induced by arachidonic acid
Method: as §1, §2

cyclooxygenases = biological target: T1, cyclooxygenases (Homo sapiens, UniProt P23219); assay: COX inhibition in human piastrines (Tromboxan B2 level); format: cell-based; conditions: for COX inhibition (%): 5.10^-5 M; for COX inhibition (%) / inhibition at 100 µM / inhibition at 10 µM: % referred to controls (adding of the aggregating substance only); for inhibition at 100 µM: 10^-4 M; for inhibition at 10 µM: 10^-5 M
T1 construct: endogenous in cells; host or cells: human platelets
T1 sequence (P23219 24-599): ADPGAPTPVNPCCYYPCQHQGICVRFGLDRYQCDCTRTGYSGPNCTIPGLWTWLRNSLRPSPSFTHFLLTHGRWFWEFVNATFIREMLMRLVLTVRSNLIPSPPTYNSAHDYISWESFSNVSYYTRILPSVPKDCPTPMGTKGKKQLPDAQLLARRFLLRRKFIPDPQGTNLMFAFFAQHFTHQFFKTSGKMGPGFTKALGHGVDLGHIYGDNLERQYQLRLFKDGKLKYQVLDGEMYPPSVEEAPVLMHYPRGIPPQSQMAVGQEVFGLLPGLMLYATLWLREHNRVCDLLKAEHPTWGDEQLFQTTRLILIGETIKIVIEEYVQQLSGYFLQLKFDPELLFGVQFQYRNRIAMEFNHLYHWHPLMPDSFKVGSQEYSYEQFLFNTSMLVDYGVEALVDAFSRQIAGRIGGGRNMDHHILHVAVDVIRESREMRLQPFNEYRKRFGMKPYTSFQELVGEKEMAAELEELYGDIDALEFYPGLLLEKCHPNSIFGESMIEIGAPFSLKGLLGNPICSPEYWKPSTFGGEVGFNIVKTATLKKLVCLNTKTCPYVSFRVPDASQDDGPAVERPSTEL
Method: as §1, §2
The inhibition activity of the cyclooxygenases was determined in human piastrines according to the method described by Patrono et al (Thrombosis Res. 17, 317, 1980). The enzimatic activity was expressed as level of Tromboxan B2 (TX B2) and measured in ng/ml.

[3] = test system: intestinal gastric mucose; assay: Gastric tolerability, oral, in the rat; format: in vivo; conditions: for Gastric tolerance: in vivo; for Gastric damage: oral
Method: In the in vivo studies (for example toxicity) the products obtained above were administered in form of suspension in carboxymethylcellulose 1-2% by weight.
The gastric tolerability was evaluated through oral subministration in the rat measuring the seriousness of the gastropathie induced according to the criterium indicated by Wallace et al. (Am. J. Physiol. 259, G642, 1990).

[4] = test system: calcium concentration inside the piastrine; assay: Intracellular piastrinic calcium; format: cell-based; conditions: from 10^-5 to 10^-4 M
Method: as §1, §2
The effect of the compounds of the invention or comparison compounds on the calcium concentration inside the piastrine was measured according to the method of Pollock et al. (Biochem. J. 235, 869, 1986).

piastrinic adhesion = assay: Piastrinic adhesion; format: cell-based; conditions: from 10^-5 to 10^-4 M
Method: as §1, §2
The inhibition activity of the piastrinic adhesion was evaluated according to the method described by Bellavite et al. (Anal. Biochem. 216, 444, 1994).

[5] = Homo sapiens, Platelet, 10^-4 M, % referred to controls (adding of the aggregating substance only)
[6] = 10^-4 M, % referred to controls (adding of the aggregating substance only)
[7] = 10^-5 M, % referred to controls (adding of the aggregating substance only)

SMILES | activity at 100 µM [1, 5] | activity at 100 µM [2, 6] | activity at 10 µM [2, 7] | COX inhibition (%) (cyclooxygenases) | inhibition at 100 µM (cyclooxygenases) | inhibition at 10 µM (cyclooxygenases) | Gastric tolerance [3] | Gastric damage ([3]; 250-500 mg/Kg) | also measured
CC(=O)Oc1ccccc1C(=O)OCCCCO[N+](=O)[O-] [ANBE, 2-acetoxy-benzoate of (4-nitroxy)butyl] | 60% | 50% | 100% | 70% | 30% | 80% | very well tolerated in the gastric mucose | did not produce relevant damages | activity at 1000 µM ([1]; Homo sapiens, Platelet, 10^-3 M, % referred to controls (adding of the aggregating substance only)): 50%; activity at 1000 µM ([2]; 10^-3 M, % referred to controls (adding of the aggregating substance only)): 20%
CC(=O)Oc1ccccc1C(=O)Oc1cccc(CO[N+](=O)[O-])c1 [ANMPE, 2-acetoxy-benzoate of (3-nitroxymetyhyl)fenyl] | 0% | 0% | 60% | 2% | – | 5% | very well tolerated in the gastric mucose | did not produce relevant damages | activity at 50 µM ([1]; Homo sapiens, Platelet, 5.10^-5 M, % referred to controls (adding of the aggregating substance only)): 40%; activity at 10 µM ([1]; Homo sapiens, Platelet, 10^-5 M, % referred to controls (adding of the aggregating substance only)): 70%; Inhibition of piastrinic aggregation induced by trombin, comparison in words ([1]; versus ASA and ANBE): values surprisingly higher both with respect to ANBE and ASA; Inhibition of intracellular piastrinic calcium [4]: efficient in inhibiting significantly and in a dose-dependent way; activity at 50 µM ([2]; 5.10^-5 M, % referred to controls (adding of the aggregating substance only)): 10%; Inhibition of piastrinic adhesion (piastrinic adhesion): efficient in inhibiting significantly and in a dose-dependent way; COX inhibition, comparison in words (cyclooxygenases; versus ASA and ANBE): activities similar to ASA, but well higher with respect to ANBE
CC(=O)Oc1ccccc1C(=O)O [ASA, acetylsalicilic acid] | – | – | – | 3% | 1% | – | – | – | activity at 10 µM ([1]; Homo sapiens, Platelet): 100%; activity at 100 µM ([1]; Homo sapiens, Platelet): 100%; activity at 1000 µM ([1]; Homo sapiens, Platelet): 80%; activity at 10 µM [2]: 40%; activity at 100 µM [2]: 0%; Gastric damage ([3]; 50-100 mg/Kg): severe damages
